Assay results published in publication PMC3057995, “Potent Anti-Tumor Effect Generated by a Novel Human Papillomavirus (HPV) Antagonist Peptide Reactivating the pRb/E2F Pathway” (PLoS ONE, 2011).

Tests used:
HPV16 E7 = assay: Immunohistochemistry of tumor tissues, HPV16 E7; format: in vivo, mouse (Balb/C-nu/nu); settings: 400 µg/mouse group vs control
CaSki cells [1] = assay: qRT-PCR, CaSki; format: cell-based; settings: 80 µM
Protocol: Total RNA was extracted from the cultured cells using TRIzol reagent (Invitrogen, Carlsbad, CA,USA) according to the manufacturer's instructions. qRT-PCR was used to confirm the expression levels of mRNAs. Reverse transcription and qPCR were performed according to the protocol of Reverse Transcriptase System™ and SYBR® premix Ex Taq™ (Perfect Real Time) (TaKaRa, Dalian, P.R. China) on the ABI 7300 Real Time PCR System (Applied Biosystems, Foster City, CA, USA) supplied with analytical software. β-actin mRNA levels were used for normalization. Each sample was determined in triplicate. The results represent means ± SE from three experiment runs.

HeLa cells [2] = assay: MTT cell viability assay, HeLa; format: cell-based; settings: HPV18-positive, A540
Protocol: (§1) Cell viability was determined with an MTT assay. Briefly, the cells were seeded into 96-well plates at a density of 4–5×10^3 cells/well. The cells were allowed to recover for 24 h before the medium was replaced with DMEM supplemented with peptides at different concentrations. The solvent of the peptides was set as the control. The peptide-supplemented medium was replaced daily and the respective concentrations were maintained. The cells were subjected to an MTT cell proliferation assay at different time points. The plates were incubated at 37°C for 3 h with the addition of 20 µl/well MTT (5 mg/ml). Untransformed MTT in the solution was removed by aspiration. The formazan product was dissolved in DMSO, and plates were shaken vigorously at room temperature for 10–15 min to ensure complete solubilization. The optical density of the formazan solutions was measured by microplate reader at 540 nm.

HPV16E7/pRb interaction = assay: His-pull down of pRb by His-HPV16E7; format: binding; settings: 293T cell lysate (300 µg total proteins), 10 µl 8 mmol/L Pep-7, overnight 4°C
Protocol: For pull-down analysis, the purified His-HPV E7 protein (200 µg/ml×50 µl) was preincubated with 100 µl His-band Resin (Amersham Biosciences, Little Chalfont, UK) for 4 h at 4°C. The beads were then washed four times with lysis buffer and divided into two equal portions. […] The mixtures were incubated overnight at 4°C under continuous agitation. Beads were subsequently washed four times with a lysis buffer. Bound proteins were eluted by boiling in Laemmli sample buffer and analyzed by Western blot.

SiHa cells = assay: Clonogenic assay, SiHa; format: cell-based; settings: 14 days
Protocol: (§2) Cells were seeded in DMEM at 1×10^3 cells/well density in 12-well plates and allowed to attach to the substrate overnight. Thereafter, cells were treated with 0 µM, 16 µM, 32 µM, 80 µM, and 160 µM peptide in DMEM, and the medium was changed every three days. The plates were observed daily for colony formation. After 8 (for HeLa cells) or 14 (for SiHa and CaSki cells) days of treatment, the cultures were washed three times with PBS and stained with crystal violet in ethanol for 15 min. The colonies were then counted and photographed with the Alphalmager® EP image acquisition system (Alpha Innotech, Santa Clara, CA, USA).

[3] = system: HaCat human keratinocyte cells; assay: MTT cell viability assay, HaCat; format: cell-based; settings: HPV-negative, data not shown
Description: HPV16-positive SiHa and CaSki cervical carcinoma cells were supplied by China Center for Type Culture Collection (CCTCC). The following cell lines used in this project were from our laboratory: HPV18-positive HeLa cervical carcinoma cells, CNE nasopharyngeal carcinoma cells, HaCat human keratinocyte cells, COS7 (African green monkey SV40-transformed kidney fibroblast cell line), 293T (human kidney epithelial cells), and NIH/3T3 mouse embryonic fibroblast cells. All cells were maintained in a humidified atmosphere of 5% CO2, Dulbecco's modified Eagle's medium (DMEM, pH 7.2), supplemented with 10% fetal calf serum (FCS).
as §1, with “The formazan product was dissolved in DMSO, and plates were shaken vigorously at room temperature for 10–15 min to ensure complete solubilization.” left out

HPV16 E7 protein = settings: peptides 0.08 µM to 800 µM vs HPV16E7 mAb; mean ± SE, three independent experiments
Protocol: HPV16E7 mAb alone, incubated with the coated E7 protein, gave the benchmark absorption value. Absorbance values and inhibitory ratio were collected and calculated as outlined in Materials and Methods.
The specificity and affinity of the positive clones and synthetic peptides were determined by competitive ELISA. 400 ng/well HPV16 E7 protein was coated overnight in microtiter wells at 4°C. The positive clones or peptides at different concentrations mixed with HPV16E7 mAb were incubated with the coated E7 protein in microtiter wells for 3 h. The mixture at the same concentration of the library phage and HPV16E7 mAb was set as negative control. […] HPV16E7 mAb alone at the same concentration, incubated with the coated E7 protein, gave benchmark absorption. The inhibitory ratio was calculated by the following formula: Inhibitory ratio = 100%−(A450 of mixture well/A450 of mAb alone well)×100%.

CaSki cells [4] = assay: Clonogenic assay, CaSki; format: cell-based; settings: 14 days
Protocol: as §2

HeLa cells [5] = assay: Clonogenic assay, HeLa; format: cell-based; settings: 16 through 160 µM, 8 days, p>0.1
Protocol: as §2

CaSki cells [6] = assay: MTT cell viability assay, CaSki; format: cell-based; settings: HPV16-positive, medium replaced daily, A540, mean ± SE, at least two independent runs in sextuplicate
Protocol: as §1

pRb = assay: Immunohistochemistry of tumor tissues, pRb; format: in vivo, mouse (Balb/C-nu/nu); settings: 400 µg/mouse group vs control
Protocol: Three or two mice bearing tumor of each group were prelabeled with intra-peritoneal injection of BrdU (100 mg/kg, Sigma-Aldrich, Inc., Aaint Louis, MO, USA) 15 hours before sacrificed. Tumor specimens were then prepared as formalin-fixed, paraffin-embedded sections for hematoxylin-eosin staining, BrdU and pRb immunohistochemical staining as previously described, [57]. In brief, immunostaining was performed on formalin-fixed, paraffin-embedded sections using the anti-pRb monoclonal and anti- BrdU monoclonal antibodies, respectively. Before the application of the primary antibodies, an antigen retrieval technique was performed. […] The antibodies were detected by means of the Strept Avidin-Biotin Complex (SABC) method (Wuhan Boster Biological Technology, Ltd., Wuhan, P.R. China.) according to the manufacturer's instructions. Stained slides were examined under a Nikon ECLIPSE TE2000-U microscope (Nikon Corporation, Tokyo, Japan) and images were collected and analyzed with Pixera Penguin 600CL DiRactor™ (Pixera Corporation, Los Gatos, CA, USA). BrdU or pRb-positive cells were counted in each section. The total cell number was determined by nuclear staining with hematoxylin. At least 1000 total cells for each case were counted.

[7] = vs 0 µM group, three independent experiments

## SACPKGLDWCGG (C&C bridged by disulfide bonds) (disulfide) [Pep-7]
HPV16 E7
  HPV16E7 protein level in tumor tissue: decreased
CaSki cells [1]
  cyclins A, D1 and E1 RNA expression: significantly reduced
  pRb and HPV16E7 RNA levels: not affected
HeLa cells [2]
  cell proliferation (MTT): could not repress the proliferation of HeLa cells
HPV16E7/pRb interaction
  pull-down of pRb by His-HPV16E7: could not pull down pRb from 293T cell lysates with Pep-7 present
SiHa cells; 16-160 µM
  colony formation: inhibited
SiHa cells; [7]
  concentration up to which colony number difference vs control became significant (p<0.02): 32 µM
[3]
  cell proliferation (MTT): negligible effect
HPV16 E7 protein
  binding to HPV16 E7: bound to HPV16 E7 with high affinity compared with the control peptide N-pep
CaSki cells [4]; 16-160 µM
  colony formation: inhibited
CaSki cells [4]; [7]
  concentration up to which colony number difference vs control became significant (p<0.02): 32 µM
HeLa cells [5]
  colony formation: not influenced
CaSki cells [6]
  cell proliferation (MTT): repressed significantly by Pep-7 in a dose- and time-dependent manner
pRb
  pRb protein level in tumor tissue: increased
